Reference: patent US10851116B2, “Bicyclic amines as novel JAK kinase inhibitors” (LEO Pharma A/S, priority 2017, dated 2020)

Columns and labels:
JAK3 = JAK3 (Homo sapiens (Human), UniProt P52333); assay: JAK kinase assay (HTRF), JAK3; assay type: biochemical; settings: catalytic domain, His-tag, ATP at Km (2 μM)
Method: (§1) Human baculovirus-expressed JAK1, 2, 3 and TYK2 were purchased from Carna Biosciences, Inc. All four purified enzymes contain only the catalytic domain. JAK1 (aa 850-1154) and TYK2 (aa 871-1187) are expressed with an N-terminally fused GST-tag, and JAK2 and JAK3 with an N-terminally fused His-tag.
(§2) Inhibition of phosphorylation of a synthetic peptide was measured in an HTRF-based assay using the TK substrate-Biotin from the Cisbio HTRFKinEASE TK kit. First, 2 μl of TK solution (TK substrate-biotin in kinase buffer [1× enzymatic buffer from HTRFKinEASE TK kit, 1 mM DTT]) is added to a plate containing 1 μl prediluted compound (final assay concentration DMSO: 0.75%). Then, 5 μl kinase-ATP mix (prepared in kinase buffer) is added to the wells and the plates are incubated at RT for 20-30 min. For all four kinases a concentration of ATP that corresponded to the Km for ATP was used. The final concentrations of buffers, substrate, kinase and ATP were: JAK1: 50 mM Hepes buffer pH 7.0, 0.01% BSA, 10 mM MgCl2, 1 mM DTT, 7 μM ATP, 50 nM SEB, 1 μM TK Substrate-Biotin and 5 ng JAK1; JAK2: 50 mM Hepes buffer pH 7.0, 0.01% BSA, 5 mM MgCl2, 1 mM DTT, 4 μM ATP, 1 μM TK Substrate-Biotin and 0.1 ng JAK2; JAK3: 50 mM Hepes buffer pH 7.0, 0.01% BSA, 5 mM MgCl2, 1 mM DTT, 2 μM ATP, 1 μM TK Substrate-Biotin and 0.3 ng JAK3; TYK2: 50 mM Hepes buffer pH 7.0, 0.01% BSA, 5 mM MgCl2, 1 mM DTT, 13 μM ATP, 50 nM SEB, 1 μM TK Substrate-Biotin and 0.8 ng TYK2. Thereafter, the kinase reaction is stopped by adding 4 μl detection mix (final concentrations: 50 mM Hepes buffer pH 7.0, 0.01% BSA, 0.8 M KF, 20 mM EDTA, 42 nM Streptavidin-XL665 and 1:400 STK Ab Cryptate) and the plates are incubated overnight in the dark. The HTRF signal is read using an Envision plate reader.

[1] = in vitro metabolic stability in human liver microsomes; assay type: in vitro ADME; settings: compound 0.5 μM, human liver microsomes 0.5 mg/mL, NADPH, 40 min, 37° C.; for CLint scaled at 0.5 μM: human, liver microsomes, read-out: Human liver microsome Clapp (apparent intrinsic clearance)
Method: To assess the in vitro metabolic stability, the compounds (0.5 μM) were incubated in duplicates with human liver microsomes (0.5 mg/mL) in phosphate buffer and NADPH, in 96-well plates for 40 min (37° C.), using a liquid handling robot (Hamilton Microlab Star). Sample aliquots were taken at 0, 5, 10, 20 and 40 min, and dispensed into cold acetonitrile, in order to stop the reactions. The plates were centrifuged for 30 minutes before the samples were analyzed using liquid chromatography coupled to a time-of-flight mass spectrometer (AB Sciex API5600). The compound depletion over time was used to estimate the elimination rate constant, from which the apparent intrinsic clearance, Clapp, was calculated and the values are listed in table 2.

TYK2 = TYK2 (Homo sapiens (Human), UniProt P29597); assay: JAK kinase assay (HTRF), TYK2; assay type: biochemical; settings: catalytic domain (aa 871-1187), GST-tag, ATP at Km (13 μM)
Method: as §1, §2

JAK2 = JAK2 (Homo sapiens (Human), UniProt O60674); assay: JAK kinase assay (HTRF), JAK2; assay type: biochemical; settings: catalytic domain, His-tag, ATP at Km (4 μM)
Method: as §1, §2

JAK1 = JAK1 (Homo sapiens (Human), UniProt P23458); assay: JAK kinase assay (HTRF), JAK1; assay type: biochemical; settings: catalytic domain (aa 850-1154), GST-tag, ATP at Km (7 μM)
Method: as §1, §2

JAK1, sequence (P23458 850-1154): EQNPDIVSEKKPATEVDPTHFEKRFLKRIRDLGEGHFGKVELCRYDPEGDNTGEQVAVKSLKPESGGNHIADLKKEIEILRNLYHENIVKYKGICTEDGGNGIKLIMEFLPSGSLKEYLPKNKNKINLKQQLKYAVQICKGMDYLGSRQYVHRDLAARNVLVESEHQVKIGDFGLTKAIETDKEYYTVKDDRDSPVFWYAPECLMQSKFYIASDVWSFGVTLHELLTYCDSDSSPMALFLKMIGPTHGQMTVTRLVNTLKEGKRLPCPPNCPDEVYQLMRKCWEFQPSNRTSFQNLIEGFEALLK
JAK3, sequence (P52333 822-1111): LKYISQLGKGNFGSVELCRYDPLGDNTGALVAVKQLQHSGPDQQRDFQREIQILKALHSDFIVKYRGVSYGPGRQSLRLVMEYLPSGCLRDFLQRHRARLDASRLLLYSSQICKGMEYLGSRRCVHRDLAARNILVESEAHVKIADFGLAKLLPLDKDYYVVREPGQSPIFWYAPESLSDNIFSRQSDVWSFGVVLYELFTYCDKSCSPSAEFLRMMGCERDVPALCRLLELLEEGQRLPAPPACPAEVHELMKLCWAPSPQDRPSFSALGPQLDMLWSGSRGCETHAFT
TYK2, sequence (P29597 871-1187): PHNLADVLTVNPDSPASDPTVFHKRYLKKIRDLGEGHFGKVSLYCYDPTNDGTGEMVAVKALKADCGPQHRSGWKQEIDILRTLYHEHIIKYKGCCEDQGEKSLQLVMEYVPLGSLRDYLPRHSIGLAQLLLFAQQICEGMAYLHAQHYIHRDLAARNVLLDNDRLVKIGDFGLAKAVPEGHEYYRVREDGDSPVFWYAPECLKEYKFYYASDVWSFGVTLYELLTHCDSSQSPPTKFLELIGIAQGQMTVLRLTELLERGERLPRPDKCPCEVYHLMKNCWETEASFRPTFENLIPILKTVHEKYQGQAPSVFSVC
JAK2, sequence (O60674 849-1124): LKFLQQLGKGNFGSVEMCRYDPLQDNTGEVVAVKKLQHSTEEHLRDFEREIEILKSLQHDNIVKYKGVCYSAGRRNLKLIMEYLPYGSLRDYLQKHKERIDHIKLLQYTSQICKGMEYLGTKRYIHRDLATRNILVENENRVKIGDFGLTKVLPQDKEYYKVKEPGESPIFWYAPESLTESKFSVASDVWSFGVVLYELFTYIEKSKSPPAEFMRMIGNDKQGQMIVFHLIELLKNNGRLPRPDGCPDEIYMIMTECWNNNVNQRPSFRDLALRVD

| Compound | EC50 (JAK3) | CLint scaled at 0.5 μM [1] | EC50 (TYK2) | EC50 (JAK2) | EC50 (JAK1) | Human liver microsome Clapp (apparent intrinsic clearance) [1] |
| --- | --- | --- | --- | --- | --- | --- |
| Cc1cc(N2CC[C@H]3CCN(c4ncnc5[nH]ccc45)C[C@@]3(C)C2)ncc1C#N (racemic) [Example 8, 6-[(4aS*,8aR*)-8a-methyl-7-(7H-pyrrolo[2,3-d]pyrimidin-4-yl)-3,4,4a,5,6,8-hexahydro-1H-2,7-naphthyridin-2-yl]-4-methyl-pyridine-3-carbonitrile] | 21 nM | 200 mL/min/kg | 2110 nM | 269 nM | 86 nM | – |
| CC[C@@]12CN(c3ncnc4[nH]ccc34)CC[C@@H]1CCN(S(N)(=O)=O)C2 (relative stereo) [Example 17, (4aR*,8aS*)-8a-ethyl-7-(7H-pyrrolo[2,3-d]pyrimidin-4-yl)-3,4,4a,5,6,8-hexahydro-1H-2,7-naphthyridine-2-sulfonamide] | 3 nM | 197 mL/min/kg | 45 nM | 7 nM | 2 nM | – |
| CC[C@@]12CN(c3ncnc4[nH]ccc34)CC[C@@H]1CCN(S(N)(=O)=O)C2 [Example 18, (4aR,8aS)-8a-ethyl-7-(7H-pyrrolo[2,3-d]pyrimidin-4-yl)-3,4,4a,5,6,8-hexahydro-1H-2,7-naphthyridine-2-sulfonamide] | 2 nM | – | 17 nM | 3 nM | 2 nM | 127 mL/min/kg |
| C[C@]12CN(C#N)CC[C@H]1CCN(c1ncnc3[nH]ccc13)C2 (relative stereo) [Example 2, (4aR*,8aS*)-8a-methyl-7-(7H-pyrrolo[2,3-d]pyrimidin-4-yl)-3,4,4a,5,6,8-hexahydro-1H-2,7-naphthyridine-2-carbonitrile] | 25 nM | – | 27 nM | 6 nM | 1 nM | 62 mL/min/kg |
| CC[C@]12CN(C#N)CC[C@H]1CCN(c1ncnc3[nH]ccc13)C2 (relative stereo) [Example 23, (4aR*,8aS*)-8a-ethyl-7-(7H-pyrrolo[2,3-d]pyrimidin-4-yl)-3,4,4a,5,6,8-hexahydro-1H-2,7-naphthyridine-2-carbonitrile] | 14 nM | – | 11 nM | 4 nM | 2 nM | 200 mL/min/kg |
| Cc1cc(N2C[C@H]3CCN(c4ncnc5[nH]ccc45)C[C@@]3(C)C2)ncc1C#N (racemic) [Example 40, 6-[(3aR*,7aS*)-3a-methyl-5-(7H-pyrrolo[2,3-d]pyrimidin-4-yl)-1,3,4,6,7,7a-hexahydropyrrolo[3,4-c]pyridin-2-yl]-4-methyl-pyridine-3-carbonitrile] | 46 nM | 200 mL/min/kg | 722 nM | 28 nM | 3 nM | – |
| C[C@]12CN(C#N)CC[C@H]1CCN(c1ncnc3[nH]ccc13)C2 [Example 1, (4aR,8aS)-8a-methyl-7-(7H-pyrrolo[2,3-d]pyrimidin-4-yl)-3,4,4a,5,6,8-hexahydro-1H-2,7-naphthyridine-2-carbonitrile] | 15 nM | 54 mL/min/kg | 13 nM | 4 nM | 1 nM | – |
| C[C@]12CN(c3ccc(C#N)cn3)C[C@H]1CCN(c1ncnc3[nH]ccc13)C2 (racemic) [Example 47] | 26 nM | 133 mL/min/kg | 159 nM | 30 nM | 5 nM | – |
| CC[C@]12CN(C=O)CC[C@H]1CCN(c1ncnc3[nH]ccc13)C2 (relative stereo) [Example 16, (4aR*,8aS*)-8a-ethyl-7-(7H-pyrrolo[2,3-d]pyrimidin-4-yl)-3,4,4a,5,6,8-hexahydro-1H-2,7-naphthyridine-2-carbaldehyde] | 43 nM | 116 mL/min/kg | 176 nM | 41 nM | 13 nM | – |
| C[C@@]12CN(C#N)CC[C@@H]1CCN(c1ncnc3[nH]ccc13)C2 [Example 3, (4aS,8aR)-8a-methyl-7-(7H-pyrrolo[2,3-d]pyrimidin-4-yl)-3,4,4a,5,6,8-hexahydro-1H-2,7-naphthyridine-2-carbonitrile] | 924 nM | 60 mL/min/kg | 1480 nM | 428 nM | 237 nM | – |
| C[C@]12CN(c3cnc(C#N)cn3)C[C@H]1CCN(c1ncnc3[nH]ccc13)C2 (racemic) [Example 43] | 37 nM | 55 mL/min/kg | 232 nM | 22 nM | 3 nM | – |
| C[C@@]12CN(c3ncnc4[nH]ccc34)CC[C@@H]1CCN(S(N)(=O)=O)C2 (racemic) [Example 9, (4aR*,8aS*)-8a-methyl-7-(7H-pyrrolo[2,3-d]pyrimidin-4-yl)-3,4,4a,5,6,8-hexahydro-1H-2,7-naphthyridine-2-sulfonamide] | 8 nM | – | 241 nM | 58 nM | 39 nM | – |
| C[C@]12CN(c3ccncn3)C[C@H]1CCN(c1ncnc3[nH]ccc13)C2 (racemic) [Example 39, 4-[(3aR*,7aS*)-3a-methyl-2-pyrimidin-4-yl-1,3,4,6,7,7a-hexahydropyrrolo[3,4-c]pyridin-5-yl]-7H-pyrrolo[2,3-d]pyrimidine] | 199 nM | – | 775 nM | 72 nM | 18 nM | – |
| Cc1cc(C#N)cnc1N1C[C@H]2CCN(c3ncnc4[nH]ccc34)C[C@@]2(C)C1 (racemic) [Example 44] | 99 nM | – | 2020 nM | 179 nM | 65 nM | – |
| C[C@]12CN(c3ncc(Br)cc3CO)C[C@H]1CCN(c1ncnc3[nH]ccc13)C2 (racemic) [Example 37, [2-[(3aS*,7aS*)-3a-methyl-5-(7H-pyrrolo[2,3-d]pyrimidin-4-yl)-1,3,4,6,7,7a-hexahydropyrrolo[3,4-c]pyridin-2-yl]-5-bromo-3-pyridyl]methanol] | 38 nM | – | 611 nM | 48 nM | 12 nM | – |
| C[C@@]12CN(c3ncnc4[nH]ccc34)CC[C@@H]1CN(S(=O)(=O)NCC#N)C2 (racemic) [Example 30, (3aS*,7aS*)—N-(cyanomethyl)-3a-methyl-5-(7H-pyrrolo[2,3-d]pyrimidin-4-yl)-1,3,4,6,7,7a-hexahydropyrrolo[3,4-c]pyridine-2-sulfonamide] | 91 nM | – | 364 nM | 56 nM | 29 nM | – |
| Cc1nc(N2C[C@H]3CCN(c4ncnc5[nH]ccc45)C[C@@]3(C)C2)ccc1C#N (racemic) [Example 45, 6-[(3aR*,7aS*)-3a-methyl-5-(7H-pyrrolo[2,3-d]pyrimidin-4-yl)-1,3,4,6,7,7a-hexahydropyrrolo[3,4-c]pyridin-2-yl]-2-methyl-pyridine-3-carbonitrile] | 120 nM | – | 1190 nM | 103 nM | 30 nM | – |
| C[C@@]12CN(c3ncnc4[nH]ccc34)CC[C@@H]1CN(S(N)(=O)=O)C2 (racemic) [Example 27, (3aS*,7aS*)-3a-methyl-5-(7H-pyrrolo[2,3-d]pyrimidin-4-yl)-1,3,4,6,7,7a-hexahydropyrrolo[3,4-c]pyridine-2-sulfonamide] | 54 nM | – | 473 nM | 80 nM | 40 nM | – |
| C[C@@]12CN(C#N)C[C@@H]1CCN(c1ncnc3[nH]ccc13)C2 [Example 28, (3aR,7aR)-3a-methyl-5-(7H-pyrrolo[2,3-d]pyrimidin-4-yl)-1,3,4,6,7,7a-hexahydropyrrolo[3,4-c]pyridine-2-carbonitrile] | 2180 nM | – | 2470 nM | 827 nM | 240 nM | – |
